Test results taken from US20220096516A1, “OLIGONUCLEOTIDE MOLECULE AND APPLICATION THEREOF IN TUMOR THERAPY” (Ractigen Therapeutics, priority 2019, published 2022).
d = 2'-deoxy (DNA); r = 2'-OH (RNA)

Test system: LHPP gene
Assay: High-throughput screening of saRNAs targeting LHPP promoter: LHPP mRNA by one-step RT-qPCR in Huh7 cells
Format: cell-based, human
Details: 10 nM saRNA, 72 hours, relative to control (Mock)
Outline: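 LHPP transcript level relative to mock, normalised to the geometric mean of the HPRT1 and TBP reference genes, measured by one-step RT-qPCR on crude lysates. Huh7 cells had been RNAiMax-transfected with each saRNA at 10 nM for 72 h.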

Row | Substance | Fold of changes in relative LHPP mRNA expression level [fold] | Fold of changes in relative LHPP mRNA expression level (log2)
1 | RAG7-885: saRNA duplex; sense CCAGAAGUAAAGUGUUCUCTT (SEQ ID NO: 147), antisense GAGAACACUUUACUUCUGGTT (SEQ ID NO: 311) (sugars from the 5' end r19 d2, backbone not given here) | 1.14 | 0.18
2 | RAG7-780: saRNA duplex; sense AAUGUAGCAUCGAGUGGUATT (SEQ ID NO: 142), antisense UACCACUCGAUGCUACAUUTT (SEQ ID NO: 306) (sugars from the 5' end r19 d2, backbone not given here) | 1.14 | 0.19
3 | RAG7-165: saRNA duplex; sense CCUUUCUUAGGGACUUGUUTT (SEQ ID NO: 152), antisense AACAAGUCCCUAAGAAAGGTT (SEQ ID NO: 316) (sugars from the 5' end r19 d2, backbone not given here) | 1.11 | 0.16
4 | RAG7-707: saRNA duplex; sense UUCUUCUCAGCCCAGGUCCTT (SEQ ID NO: 8), antisense GGACCUGGGCUGAGAAGAATT (SEQ ID NO: 172) (sugars from the 5' end r19 d2, backbone not given here) | 1.72 | 0.78
5 | RAG7-182: saRNA duplex; sense UCUCAAUUUGCCUUUGACCTT (SEQ ID NO: 85), antisense GGUCAAAGGCAAAUUGAGATT (SEQ ID NO: 249) (sugars from the 5' end r19 d2, backbone not given here) | 1.26 | 0.33
6 | RAG7-687: saRNA duplex; sense AUGCAUCCUCAUCUAUGCATT (SEQ ID NO: 162), antisense UGCAUAGAUGAGGAUGCAUTT (SEQ ID NO: 326) (sugars from the 5' end r19 d2, backbone not given here) | 1.10 | 0.14
7 | RAG7-172: saRNA duplex; sense CCUUUGACCUUUCUUAGGGTT (SEQ ID NO: 81), antisense CCCUAAGAAAGGUCAAAGGTT (SEQ ID NO: 245) (sugars from the 5' end r19 d2, backbone not given here) | 1.27 | 0.34
8 | RAG7-191: saRNA duplex; sense GCCUUCUUGUCUCAAUUUGTT (SEQ ID NO: 88), antisense CAAAUUGAGACAAGAAGGCTT (SEQ ID NO: 252) (sugars from the 5' end r19 d2, backbone not given here) | 1.25 | 0.32
9 | RAG7-894: saRNA duplex; sense UAUGUUGGACCAGAAGUAATT (SEQ ID NO: 37), antisense UUACUUCUGGUCCAACAUATT (SEQ ID NO: 201) (sugars from the 5' end r19 d2, backbone not given here) | 1.45 | 0.54
10 | RAG7-844: saRNA duplex; sense GGUUCCGAGGGGCCAUUGATT (SEQ ID NO: 129), antisense UCAAUGGCCCCUCGGAACCTT (SEQ ID NO: 293) (sugars from the 5' end r19 d2, backbone not given here) | 1.17 | 0.22
11 | RAG7-679: saRNA duplex; sense UCAUCUAUGCAGGGCUGUUTT (SEQ ID NO: 107), antisense AACAGCCCUGCAUAGAUGATT (SEQ ID NO: 271) (sugars from the 5' end r19 d2, backbone not given here) | 1.20 | 0.27
12 | RAG7-896: saRNA duplex; sense GCUAUGUUGGACCAGAAGUTT (SEQ ID NO: 69), antisense ACUUCUGGUCCAACAUAGCTT (SEQ ID NO: 233) (sugars from the 5' end r19 d2, backbone not given here) | 1.30 | 0.38
13 | RAG7-128: saRNA duplex; sense UUGUCCGCUGAUCUCCUGGTT (SEQ ID NO: 111), antisense CCAGGAGAUCAGCGGACAATT (SEQ ID NO: 275) (sugars from the 5' end r19 d2, backbone not given here) | 1.20 | 0.26
14 | RAG7-194: saRNA duplex; sense GGUGCCUUCUUGUCUCAAUTT (SEQ ID NO: 48), antisense AUUGAGACAAGAAGGCACCTT (SEQ ID NO: 212) (sugars from the 5' end r19 d2, backbone not given here) | 1.38 | 0.47
15 | RAG7-715: saRNA duplex; sense GUCCCGUUUUCUUCUCAGCTT (SEQ ID NO: 148), antisense GCUGAGAAGAAAACGGGACTT (SEQ ID NO: 312) (sugars from the 5' end r19 d2, backbone not given here) | 1.13 | 0.18
16 | RAG7-833: saRNA duplex; sense GCCAUUGAGGAAACUCCUCTT (SEQ ID NO: 138), antisense GAGGAGUUUCCUCAAUGGCTT (SEQ ID NO: 302) (sugars from the 5' end r19 d2, backbone not given here) | 1.14 | 0.20
17 | RAG7-106: saRNA duplex; sense GAAAGCUUCCGAAAAGGACTT (SEQ ID NO: 150), antisense GUCCUUUUCGGAAGCUUUCTT (SEQ ID NO: 314) (sugars from the 5' end r19 d2, backbone not given here) | 1.12 | 0.17
18 | RAG7-120: saRNA duplex; sense UGAUCUCCUGGGAAGAAAGTT (SEQ ID NO: 141), antisense CUUUCUUCCCAGGAGAUCATT (SEQ ID NO: 305) (sugars from the 5' end r19 d2, backbone not given here) | 1.14 | 0.19
19 | RAG7-185: saRNA duplex; sense UUGUCUCAAUUUGCCUUUGTT (SEQ ID NO: 116), antisense CAAAGGCAAAUUGAGACAATT (SEQ ID NO: 280) (sugars from the 5' end r19 d2, backbone not given here) | 1.19 | 0.25
20 | RAG7-198: saRNA duplex; sense UACAGGUGCCUUCUUGUCUTT (SEQ ID NO: 134), antisense AGACAAGAAGGCACCUGUATT (SEQ ID NO: 298) (sugars from the 5' end r19 d2, backbone not given here) | 1.16 | 0.21
21 | RAG7-29: saRNA duplex; sense CACCCGGUCUUCUUGCCCUTT (SEQ ID NO: 79), antisense AGGGCAAGAAGACCGGGUGTT (SEQ ID NO: 243) (sugars from the 5' end r19 d2, backbone not given here) | 1.28 | 0.35
22 | RAG7-670: saRNA duplex; sense CAGGGCUGUUAUCUGCAUATT (SEQ ID NO: 136), antisense UAUGCAGAUAACAGCCCUGTT (SEQ ID NO: 300) (sugars from the 5' end r19 d2, backbone not given here) | 1.15 | 0.20
23 | RAG7-892: saRNA duplex; sense UGUUGGACCAGAAGUAAAGTT (SEQ ID NO: 2), antisense CUUUACUUCUGGUCCAACATT (SEQ ID NO: 166) (sugars from the 5' end r19 d2, backbone not given here) | 2.05 | 1.03
24 | RAG7-893: saRNA duplex; sense AUGUUGGACCAGAAGUAAATT (SEQ ID NO: 14), antisense UUUACUUCUGGUCCAACAUTT (SEQ ID NO: 178) (sugars from the 5' end r19 d2, backbone not given here) | 1.63 | 0.70
25 | RAG7-697: saRNA duplex; sense CCCAGGUCCUAUGCAUCCUTT (SEQ ID NO: 41), antisense AGGAUGCAUAGGACCUGGGTT (SEQ ID NO: 205) (sugars from the 5' end r19 d2, backbone not given here) | 1.43 | 0.51
